Laboratory results as given in publication PMC6115449, “Rapid and simple detection of Tamiflu-resistant influenza virus: Development of oseltamivir derivative-based lateral flow biosensor for point-of-care (POC) diagnostics” (Scientific Reports, 2018).

Columns and labels:
[1] = target: WT NA (neuraminidase of pandemic H1N1 virus A/California/07/2009) (Influenza A virus (A/California/07/2009(H1N1)), UniProt C3W6G3); assay: fluorescence NA inhibition assay (NA-Fluor, MUNANA); assay type: biochemical; details: MUNANA substrate; 30 min preincubation, 60 min reaction, 37 °C; whole virus 10^6 PFU/mL; ethyl ester prodrug tested as such
[2] = target: WT NA (neuraminidase of pandemic H1N1 virus A/California/07/2009) (Influenza A virus (A/California/07/2009(H1N1)), UniProt C3W6G3); assay: fluorescence NA activity assay (ex […] nm, em […] nm); assay type: biochemical; details: 37 °C, 60 min; whole virus

SMILES | relative NA activity [1] | fluorescence NA activity assay (ex 360 nm, em 450 nm) [2]
CCOC(=O)C1=C[C@@H](OC(CC)CC)[C@H](NC(C)=O)[C@@H](N)C1 [compound 3, oseltamivir phosphate] | increase in oseltamivir phosphate concentration was accompanied by its binding to WT NA and inhibition | –
CC(=O)N[C@H]1[C@H]([C@H](O)[C@H](O)CO)O[C@@](Oc2ccc3c(C)cc(=O)oc3c2)(C(=O)O)C[C@@H]1O [2-(4-methylumbelliferyl)-a-D-N-acetylneuraminic acid] | – | (MUNANA) was used as the fluorescent substrate to determine the NA enzymatic parameters
